Laboratory results taken from article PMC12133982, “Predominant T-cell epitopes of SARS-CoV-2 restricted by multiple prevalent HLA-B and HLA-C allotypes in Northeast Asia” (Frontiers in Immunology, 2025).
Where two headings read alike, the source gives them in different places. Peptide text beside a SMILES is read from it.

Legend:
[1] = biological target: HLA-C0102 (Homo sapiens, UniProt P10321, A176E/A330V/A35S/A97T/C350S/D114A/D33F/L171W/L180R/L218V/M285V/M309V/M331V/P208H/Q277E/Q291P/R121W/R243W/R30K/S123C/S140Y/S297R/T329A/T363A/V272M/V319A); assay: Competitive peptide binding assay, CIR-C0102; conditions: for inhibition at 15 µM / inhibition at 5 µM: read-out: Inhibition % of Cy5-reference peptide binding
Experimental: (§1) Then, competitive peptide binding assays were performed.

[2] = biological target: HLA-C0304 (Homo sapiens, UniProt P10321, A176E/A330V/A97T/C25G/C350S/D114A/D33Y/E197K/L119I/L127V/L171W/L218V/M285V/M309V/M331V/P208H/Q277E/Q291P/R243W/R45H/S123Y/S140Y/S297R/S48A/T118I/T187L/T329A/T363A/V319A); assay: Competitive peptide binding assay, CIR-C0304; conditions: HMy2.CIR-C0304 cells, reference Cy5-[…], class from inhibition at 5 and 15 μM, flow cytometry MFI; read-out: Binding affinity with HLA-C0304
Experimental: as §1

[3] = biological target: HLA-C0302 (Homo sapiens, UniProt P10321, A176E/A330V/A97T/C25G/C350S/D114A/D33Y/E197K/L127V/L171W/L218V/M285V/M309V/M331V/P208H/Q277E/Q291P/R243W/R45H/S123Y/S297R/S48A/T118I/T187L/T329A/T363A/V319A); assay: Competitive peptide binding assay, CIR-C0302; conditions: HMy2.CIR-C0302 cells, reference Cy5-[…], class from inhibition at 5 and 15 μM, flow cytometry MFI; read-out: Binding affinity with HLA-C0302
Experimental: as §1

[4] = biological target: HLA-C0401 (Homo sapiens, UniProt P10321, A176E/A330V/A35S/A73E/C25G/C350S/D138N/D33S/E299K/L171W/L180R/L218V/M285V/M309V/M331V/N104K/P208H/Q277E/Q291P/R243W/R38W/S101N/S123F/S140F/S297R/S48A/T329A/T363A/V319A/V327M); assay: Competitive peptide binding assay, CIR-C0401; conditions: HMy2.CIR-C0401 cells, reference Cy5-[…], class from inhibition at 5 and 15 μM, flow cytometry MFI; read-out: Binding affinity with HLA-C0401
Experimental: as §1

[5] = biological target: HLA-C1402 (Homo sapiens, UniProt P10321, A176E/A330V/A35S/A97T/C350S/D114A/D33S/L171W/L180R/L218V/M285V/M309V/M331V/P208H/Q277E/Q291P/R121W/R243W/S123F/S297R/S48A/T329A/T363A/V319A); assay: Competitive peptide binding assay, CIR-C1402; conditions: HMy2.CIR-C1402 cells, reference Cy5-[…], class from inhibition at 5 and 15 μM, flow cytometry MFI; read-out: Binding affinity with HLA-C1402
Experimental: as §1

[6] = biological target: HLA-C0602 (Homo sapiens, UniProt P10321, A176E/A330V/C350S/L171W/L180W/L218V/M285V/M309V/M331V/N104K/P208H/Q277E/Q291P/R121W/S101N/S123Y/S297R/T329A/T363A/V319A/V328M); assay: Competitive peptide binding assay, CIR-C0602
[7] = biological target: HLA-C0702 (Homo sapiens, UniProt P10321); assay: Competitive peptide binding assay, CIR-C0702
[8] = biological target: HLA-C0801 (Homo sapiens, UniProt P10321, A176T/A330V/A97T/C350S/D114A/D138N/D33Y/E201K/E299G/L171W/L218V/M285V/M309V/M331V/P208H/Q277E/Q291P/R59Q/S123Y/S140F/S297R/S48A/T329A/T363A/V319A/V328M); assay: Competitive peptide binding assay, CIR-C0801; conditions: HMy2.CIR-C0801 cells, reference Cy5-[…], class from inhibition at 5 and 15 μM, flow cytometry MFI; read-out: Binding affinity with HLA-C0801
Experimental: as §1

[9] = biological target: HLA-C0303 (Homo sapiens, UniProt P10321, A176E/A330V/A97T/C25G/C350S/D114A/D33Y/E197K/G115R/L119I/L127V/L171W/L218V/M285V/M309V/M331V/P208H/Q277E/Q291P/R243W/R45H/S123Y/S140Y/S297R/S48A/T118I/T187L/T329A/T363A/V319A); assay: Competitive peptide binding assay, CIR-C0303; conditions: HMy2.CIR-C0303 cells, reference Cy5-[…], class from inhibition at 5 and 15 μM, flow cytometry MFI; read-out: Binding affinity with HLA-C0303
Experimental: as §1

[10] = HMy2.CIR-C0102 cells, reference Cy5-[…], class from inhibition at 5 and 15 μM, flow cytometry MFI, read-out: Binding affinity with HLA-C0102

| Structure (SMILES) | IC50 [1, 10] [µM] | IC50 [2] [µM] | IC50 [3] [µM] | IC50 [4] [µM] | IC50 [5] [µM] | IC50 [6] [µM] | IC50 [7] [µM] | IC50 [8] [µM] | IC50 [9] [µM] | inhibition at 15 µM [1] [%] | inhibition at 5 µM [1] [%] | IC50 [1] [µM] |
| --- | --- | --- | --- | --- | --- | --- | --- | --- | --- | --- | --- | --- |
| CC[C@H](C)[C@H](N)C(=O)N[C@H](C(=O)N[C@@H](CC(N)=O)C(=O)N[C@@H](CO)C(=O)N[C@H](C(=O)N[C@@H](CC(C)C)C(=O)N[C@@H](CC(C)C)C(=O)N[C@@H](Cc1ccccc1)C(=O)N[C@@H](CC(C)C)C(=O)O)C(C)C)C(C)C [Epitope M7] (H-IVNSVLLFL-OH; N-terminus and C-terminus assumed) | < 5 | > 15 | > 15 | 5 to 15 | > 15 | 5 to 15 | > 15 |  |  |  |  |  |
| CC(C)C[C@H](NC(=O)[C@@H](NC(=O)[C@@H](NC(=O)CNC(=O)[C@H](CCC(N)=O)NC(=O)[C@@H]1CCCN1C(=O)[C@H](CC(C)C)NC(=O)[C@H](CCC(N)=O)NC(=O)[C@@H](N)CC(C)C)[C@@H](C)O)[C@@H](C)O)C(=O)O [Epitope M13] (H-LQLPQGTTL-OH; N-terminus and C-terminus assumed) |  | < 5 |  | 5 to 15 | > 15 |  | 5 to 15 |  |  |  |  |  |
| CSCC[C@H](NC(=O)[C@H](CO)NC(=O)[C@H](CCC(N)=O)NC(=O)[C@H](CCC(N)=O)NC(=O)[C@H](CC(C)C)NC(=O)[C@H](CCC(N)=O)NC(=O)[C@H](CCCCN)NC(=O)[C@H](CO)NC(=O)[C@@H](N)Cc1ccccc1)C(=O)O [Epitope M14] (H-FSKQLQQSM-OH; N-terminus and C-terminus assumed) | > 15 | 5 to 15 | < 5 |  |  |  | 5 to 15 | > 15 | < 5 |  |  |  |
| CC[C@H](C)[C@H](NC(=O)[C@@H](NC(=O)[C@H](CC(N)=O)NC(=O)[C@H](CCCNC(=N)N)NC(=O)[C@H](CCCCN)NC(=O)[C@@H](NC(=O)[C@H](Cc1ccc(O)cc1)NC(=O)[C@H](C)NC(=O)[C@@H](N)Cc1ccccc1)[C@@H](C)O)C(C)C)C(=O)O [Epitope M23] (H-FAYTKRNVI-OH; N-terminus and C-terminus assumed) | 5 to 15 |  |  | > 15 |  |  |  | > 15 | < 5 | 78.9 |  |  |
| CC(C)C[C@H](NC(=O)[C@H](CC(C)C)NC(=O)[C@H](Cc1ccccc1)NC(=O)[C@@H](NC(=O)[C@H](CCCNC(=N)N)NC(=O)[C@@H]1CCCN1C(=O)[C@H](CCC(N)=O)NC(=O)[C@H](CC(C)C)NC(=O)[C@@H](N)Cc1ccc(O)cc1)[C@@H](C)O)C(=O)O [Epitope M35] (H-YLQPRTFLL-OH; N-terminus and C-terminus assumed) | > 15 | > 15 | > 15 |  | 5 to 15 |  | < 5 |  |  |  |  |  |
| CC[C@H](C)[C@H](N)C(=O)N[C@@H](C)C(=O)N[C@@H](CC(N)=O)C(=O)N[C@@H](CCC(N)=O)C(=O)N[C@@H](Cc1ccccc1)C(=O)N[C@@H](CC(N)=O)C(=O)N[C@@H](CO)C(=O)N[C@@H](C)C(=O)N[C@H](C(=O)O)[C@@H](C)CC [Epitope M37] (H-IANQFNSAI-OH; N-terminus and C-terminus assumed) | < 5 |  |  | > 15 |  | > 15 |  | > 15 | < 5 | 86.1 | 68.9 |  |
| CSCC[C@H](NC(=O)[C@H](C)NC(=O)[C@@H]1CCCN1C(=O)[C@H](CC(=O)O)NC(=O)[C@H](C)NC(=O)[C@H](C)NC(=O)[C@H](Cc1ccc(O)cc1)NC(=O)[C@@H](NC(=O)[C@@H](N)CC(C)C)C(C)C)C(=O)O [Epitope M58] (H-LVYAADPAM-OH; N-terminus and C-terminus assumed) | > 15 |  | < 5 | > 15 |  |  | > 15 | > 15 | 5 to 15 |  |  |  |
| CSCC[C@H](NC(=O)[C@H](C)NC(=O)[C@@H](N)Cc1ccccc1)C(=O)N[C@@H](CCC(N)=O)C(=O)N[C@@H](CCSC)C(=O)N[C@@H](C)C(=O)N[C@@H](Cc1ccc(O)cc1)C(=O)N[C@@H](CCCNC(=N)N)C(=O)N[C@@H](Cc1ccccc1)C(=O)O [Epitope M63] | > 15 |  | < 5 | > 15 |  | > 15 | > 15 | > 15 | 5 to 15 |  |  |  |
| CC(C)[C@H](NC(=O)CNC(=O)[C@H](Cc1c[nH]cn1)NC(=O)[C@@H]1CCCN1C(=O)[C@H](C)NC(=O)[C@H](CO)NC(=O)[C@@H](N)CCC(N)=O)C(=O)N[C@H](C(=O)N[C@@H](Cc1ccccc1)C(=O)O)C(C)C [Epitope M69] (H-QSAPHGVVF-OH; N-terminus and C-terminus assumed) | > 15 |  |  | > 15 | > 15 | > 15 |  | > 15 |  |  |  |  |
| CC(C)C[C@H](NC(=O)[C@H](CC(C)C)NC(=O)[C@H](Cc1ccccc1)NC(=O)[C@@H](NC(=O)[C@@H](NC(=O)[C@H](Cc1ccccc1)NC(=O)[C@H](C)NC(=O)[C@H](CC(C)C)NC(=O)[C@@H](N)Cc1ccccc1)C(C)C)C(C)C)C(=O)O [Epitope M76] (H-FLAFVVFLL-OH; N-terminus and C-terminus assumed) |  | < 5 | 5 to 15 |  | > 15 |  | 5 to 15 |  |  |  |  |  |
| CC(C)[C@H](NC(=O)[C@@H](NC(=O)[C@H](Cc1ccccc1)NC(=O)[C@@H]1CCCN1C(=O)[C@@H](NC(=O)CNC(=O)[C@H](CC(=O)O)NC(=O)[C@@H](NC(=O)[C@@H](N)Cc1ccccc1)C(C)C)C(C)C)C(C)C)C(=O)O [Epitope M96] (H-FVDGVPFVV-OH; N-terminus and C-terminus assumed) |  |  |  |  | 5 to 15 |  | > 15 | < 5 | > 15 | 20.7 | 3.72 | > 15 |
| CC[C@H](C)[C@H](NC(=O)[C@H](Cc1ccccc1)NC(=O)[C@@H](N)Cc1ccc(O)cc1)C(=O)N[C@@H](C)C(=O)N[C@@H](CO)C(=O)N[C@@H](Cc1ccccc1)C(=O)N[C@@H](CCCNC(=N)N)C(=O)N[C@@H](CC(C)C)C(=O)N[C@@H](Cc1ccccc1)C(=O)O [Epitope M107] (H-YFIASFRLF-OH; N-terminus and C-terminus assumed) |  |  |  |  | < 5 | > 15 | > 15 | > 15 | 5 to 15 |  |  |  |
